Results published in ChEMBL document CHEMBL5137049, “Discovery of a Novel Small-Molecule Inhibitor Disrupting TRBP-Dicer Interaction against Hepatocellular Carcinoma via the Modulation of microRNA Biogenesis” (J Med Chem, 2022).
Activity calls are given as the source filed them. The calls are words filed in the database; no cut-off is given here.

Columns and labels:
[1] = system: MHCC97-L; assay: Antitumor activity against human MHCC97-L cells xenografted in SCID mouse assessed as reduction in tumor proliferation at 10 to 50 mg/kg, ip administered every 2 days for 4 weeks; type: functional, organism-based; conditions: dose 10-50 mg/kg
[2] = system: SK-HEP1; assay: Upregulation of let-7 expression in human SK-HEP1 cells at 10 uM by qRT-PCR analysis; type: functional, cell-based
[3] = molecular target: T1, Programmed cell death protein 4 (Homo sapiens) (UniProt Q53EL6); assay: Inhibition of PDCD4 in human HeLa cells tranfected with pCI-neo-luciferase-PDCD4 3'-UTR plasmid assessed as fold change in luciferase signal by measuring relative luciferase unit by luciferase reporter assay; type: cell-based
T1 sequence (whole entry): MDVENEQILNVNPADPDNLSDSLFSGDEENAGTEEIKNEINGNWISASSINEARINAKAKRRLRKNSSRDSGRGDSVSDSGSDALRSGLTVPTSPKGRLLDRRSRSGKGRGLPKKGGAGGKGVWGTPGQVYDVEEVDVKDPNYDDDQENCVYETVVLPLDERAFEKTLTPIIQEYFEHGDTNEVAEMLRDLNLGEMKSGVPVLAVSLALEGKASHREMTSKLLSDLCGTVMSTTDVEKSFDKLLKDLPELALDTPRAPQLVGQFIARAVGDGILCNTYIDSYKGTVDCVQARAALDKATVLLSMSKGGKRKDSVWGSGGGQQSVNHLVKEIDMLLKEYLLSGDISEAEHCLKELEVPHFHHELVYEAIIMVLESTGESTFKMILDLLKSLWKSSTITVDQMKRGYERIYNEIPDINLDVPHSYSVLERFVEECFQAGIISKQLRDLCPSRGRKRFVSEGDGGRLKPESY

[4] = system: SK-HEP1; assay: Upregulation of E-cadherin expression in human SK-HEP1 cells at 1 to 25 uM by Western blotting analysis; type: functional, cell-based; conditions: dose 1-25 µM
[5] = system: HeLa; assay: Upregulation of pre-miR-30a in human HeLa cells at 10 uM incubated for 6 hrs by qRT-PCR analysis; type: functional, cell-based
[6] = system: HeLa; assay: Downregulation of miR-21 expression in human HeLa cells at 10 uM incubated for 6 hrs by qRT-PCR analysis; type: functional
[7] = system: HeLa; assay: Downregulation of miR-214 expression in human HeLa cells at 10 uM incubated for 6 hrs by qRT-PCR analysis; type: functional
[8] = system: SK-HEP1; assay: Downregulation of vimentin expression in human SK-HEP1 cells at 1 to 25 uM by Western blot analysis; type: functional, cell-based; conditions: dose 1-25 µM
[9] = system: SK-HEP1; assay: Downregulation of N-cadherin expression in human SK-HEP1 cells at 1 to 25 uM by Western blot analysis; type: functional, cell-based; conditions: dose 1-25 µM
[10] = species on record: Homo sapiens; assay: Effect on PACT-Dicer interaction (unknown origin) assessed as increase in binding of PACT to Dicer at 1 to 25 uM by Western blotting analysis; conditions: dose 1-25 µM
[11] = Toxicity in SCID mouse xenografted with human MHCC97-L cells assessed as change in body weight at 10 to 50 mg/kg, ip administered every 2 days for 4 weeks and measured on alternate days; type: organism-based; conditions: in vivo, 672 h, dose 10-50 mg/kg
[12] = Acute toxicity in KM mouse assessed as effect on brain at 100 mg/kg, ip administered for 7 consecutive days by hematoxyin-eosin staining based analysis; type: organism-based; conditions: in vivo, 168 h, time 7 day
[13] = system: HepG2; assay: Downregulation of miR-21 expression in human HepG2 cells at 10 uM incubated for 6 hrs by qRT-PCR analysis; type: functional
[14] = system: HeLa; assay: Upregulation of pre-miR-155 in human HeLa cells at 10 uM incubated for 6 hrs by qRT-PCR analysis; type: functional, cell-based
[15] = system: SK-HEP1; assay: Downregulation of mature miR-21 expression in human SK-HEP1 cells at 10 uM incubated for 24 hrs; type: functional, cell-based
[16] = system: SK-HEP1; assay: Downregulation of SUV39H1 expression in human SK-HEP1 cells at 1 to 25 uM by Western blotting analysis; type: functional, cell-based; conditions: dose 1-25 µM
[17] = system: HepG2; assay: Upregulation of pre-miR-122 in human HepG2 cells at 10 uM incubated for 6 hrs by qRT-PCR analysis; type: functional, cell-based
[18] = system: SK-HEP1; assay: Downregulation of miR-18a expression in human SK-HEP1 cells at 10 uM by qRT-PCR analysis; type: functional, cell-based
[19] = Toxicity in SCID mouse xenografted with human MHCC97-L cells assessed as effect on kidney at 10 to 50 mg/kg, ip administered every 2 days for 4 weeks by hematoxyin-eosin staining based analysis; type: organism-based; conditions: in vivo, 672 h, dose 10-50 mg/kg
[20] = system: SK-HEP1; assay: Downregulation of RHOB expression in human SK-HEP1 cells at 1 to 25 uM by Western blotting analysis; type: functional, cell-based; conditions: dose 1-25 µM
[21] = system: HeLa; assay: Upregulation of pri-miR-155 in human HeLa cells at 10 uM incubated for 6 hrs by qRT-PCR analysis; type: functional, cell-based
[22] = system: SK-HEP1; assay: Downregulation of beta-catenin expression level in TRBP siRNA transfected human SK-HEP1 cells incubated for 48 hrs by Western blotting analysis; type: functional, cell-based
[23] = system: MHCC97-L; assay: Downregulation of miR-18a expression in human MHCC97-L cells at 10 uM by qRT-PCR analysis; type: functional, cell-based
[24] = system: SK-HEP1; assay: Upregulation of E-cadherin expression level in TRBP siRNA transfected human SK-HEP1 cells incubated for 48 hrs by Western blotting analysis; type: functional, cell-based
[25] = system: HCCLM3; assay: Antiproliferative activity against human HCCLM3 cells assessed as inhibition of cell growth incubated for 72 hrs by CellTiter-luminescence assay; type: functional, cell-based
[26] = system: HCCLM3; assay: Inhibition of cell invasion in human HCLLM3 cells at 1 to 25 uM measured after 24 hrs by crystal violet staining based transwell assay; type: functional; conditions: dose 1-25 µM
[27] = system: HeLa; assay: Downregulation of miR-30A expression in human HeLa cells at 10 uM incubated for 6 hrs by qRT-PCR analysis; type: functional
[28] = system: SK-HEP1; assay: Downregulation of PTEN protein expression in pCMV3-TRBP transfected human SK-HEP1 cells at 10 uM incubated for 24 hrs by Western blotting analysis; type: functional, cell-based
[29] = system: SK-HEP1; assay: Downregulation of vimentin expression level in TRBP siRNA transfected human SK-HEP1 cells incubated for 48 hrs by Western blotting analysis; type: functional, cell-based
[30] = system: HeLa; assay: Upregulation of pri-miR-30a in human HeLa cells at 10 uM incubated for 6 hrs by qRT-PCR analysis; type: functional, cell-based
[31] = Inhibition of microRNA in human HeLa cells transfected with pCI-neo-luciferase-miR-21 plasmid assessed as increase in luciferase activity by luciferase reporter assay; type: cell-based
[32] = system: HeLa; assay: Upregulation of pre-miR-214 in human HeLa cells at 10 uM incubated for 6 hrs by qRT-PCR analysis; type: functional, cell-based
[33] = system: HCCLM3; assay: Downregulation of miR-135 expression in human HCCLM3 cells at 10 uM by qRT-PCR analysis; type: functional, cell-based
[34] = system: Mus musculus; assay: Downregulation of beta-catenin expression in liver of SCID mouse xenografted with human SK-HEP1 cells at 10 to 50 mg/kg, ip administered every 2 days for 4 weeks by immunohistochemical staining analysis; type: functional, organism-based; conditions: dose 10-50 mg/kg
[35] = system: HCCLM3; assay: Upregulation of miR-125 expression in human HCCLM3 cells at 10 uM by qRT-PCR analysis; type: functional, cell-based

## CCOC(=O)c1nc(-c2ccc(OC)cc2)oc1C
[1]
  Activity: Active
[2]
  Activity: Active
[3]
  RLU: 2.13
[4]
  Activity: Active
[5]
  Activity: Active
[6]
  Activity: 60%
[7]
  Activity: 60%
[8]
  Activity: Active
[9]
  Activity: Active
[10]
  Activity: Active
[11]
  Activity: Non-Toxic
[12]
  Activity: Non-Toxic
[13]
  Activity: 60%
[14]
  Activity: Active
[15]
  Activity: Active
[16]
  Activity: Active
[17]
  Activity: Active
[18]
  Activity: Active
[19]
  Activity: Non-Toxic
[20]
  Activity: Active
[21]
  Activity: Active
[22]
  Activity: Active
[23]
  Activity: Active
[24]
  Activity: Active
[25]
  Activity: Active
[26]
  inhibition: Active
[27]
  Activity: 60%
[28]
  Activity: Active
[29]
  Activity: Active
[30]
  Activity: Active
[31]
  EC50: 1380 nM
[32]
  Activity: Active
[33]
  Activity: Active
[34]
  Activity: Active
[35]
  Activity: Active
